In patent US11174303B2, “Single-chain insulin analogues stabilized by a fourth disulfide bridge” (Case Western Reserve University, priority 2017, dated 2021):
Positions of bridges follow the written chain, without caps; N, C: chain ends. No end group written: not given here.

Key:
[1] = in vivo
[2] = tested on: Sprague-Dawley rats made diabetic with streptozotocin; assay: Stability under extreme conditions (95° C. for 30 min, gentle agitation), read out as glucose lowering after IV bolus in diabetic rats; type: in vivo, rat
Description: Heat stressed insulin was given gentle agitation at 95° C. for 30 min. Doses for SCIs (nominally 1 IU/rat IV) were calculated in equivalent nanomoles protein/μl.
FIG. 3C is a graph of mean blood-glucose concentrations over time in Sprague-Dawley rats made diabetic with streptozotocin after IV bolus injection of fresh or heat-stressed SCIs on gentle agitation at 95° C. for 30 min (N=4; mean glycemia ca. 400 mg/dl). Symbol code: (filled triangle, ▴) fresh SCI-1; (open triangle, ? ) heated SCI-1; (filled square, ? ) fresh insulin lispro as positive control and (filled circle, ? ) Lilly diluent (i.e., buffer only) as negative control. Doses for SCIs (nominally 1 IU/rat IV) were calculated in equivalent nanomoles protein/μl.
FIG. 3D is a graph of the change in blood-glucose concentrations normalized to initial blood glucose concentration over time in Sprague-Dawley rats made diabetic with streptozotocin after IV bolus injection of fresh or heat-stressed SCIs on gentle agitation at 95° C. for 30 min (N=4; mean glycemia ca. 400 mg/dl). Symbol code: (filled triangle, ▴) fresh SCI-1; (open triangle, ? ) heated SCI-1; (filled square, ? ) fresh insulin lispro as positive control; and (filled circle, ? ) Lilly diluent (i.e., buffer only) as negative control. Doses for SCIs (nominally 1 IU/rat IV) were calculated in equivalent nanomoles protein/μl.
To evaluate the biological activity, potency, duration of signaling, and thermal stability of the analogues in an animal model, male Sprague-Dawley rats (mean body mass ˜300 grams) were rendered diabetic by treatment with streptozotocin (STZ). […] A control was provided by injection of protein-free Lilly diluent (obtained from Eli Lilly and Co.) composed of 16 mg glycerin, 1.6 mg meta-cresol, 0.65 mg phenol, and 3.8 mg sodium phosphate pH 7.4. The activity of SCI-1 was evaluated in relation to that of Humalog® (U-100 strength taken from an unexpired commercial vial). […] Blood was obtained from the clipped tip of the tail at time 0 and every 10 minutes up to 360 min. […]

[3] = target: A isoform of the insulin receptor (Homo sapiens, UniProt P06213); type: binding
Chain of A isoform of the insulin receptor (P06213 28-746 isoform P06213-2 limits assumed): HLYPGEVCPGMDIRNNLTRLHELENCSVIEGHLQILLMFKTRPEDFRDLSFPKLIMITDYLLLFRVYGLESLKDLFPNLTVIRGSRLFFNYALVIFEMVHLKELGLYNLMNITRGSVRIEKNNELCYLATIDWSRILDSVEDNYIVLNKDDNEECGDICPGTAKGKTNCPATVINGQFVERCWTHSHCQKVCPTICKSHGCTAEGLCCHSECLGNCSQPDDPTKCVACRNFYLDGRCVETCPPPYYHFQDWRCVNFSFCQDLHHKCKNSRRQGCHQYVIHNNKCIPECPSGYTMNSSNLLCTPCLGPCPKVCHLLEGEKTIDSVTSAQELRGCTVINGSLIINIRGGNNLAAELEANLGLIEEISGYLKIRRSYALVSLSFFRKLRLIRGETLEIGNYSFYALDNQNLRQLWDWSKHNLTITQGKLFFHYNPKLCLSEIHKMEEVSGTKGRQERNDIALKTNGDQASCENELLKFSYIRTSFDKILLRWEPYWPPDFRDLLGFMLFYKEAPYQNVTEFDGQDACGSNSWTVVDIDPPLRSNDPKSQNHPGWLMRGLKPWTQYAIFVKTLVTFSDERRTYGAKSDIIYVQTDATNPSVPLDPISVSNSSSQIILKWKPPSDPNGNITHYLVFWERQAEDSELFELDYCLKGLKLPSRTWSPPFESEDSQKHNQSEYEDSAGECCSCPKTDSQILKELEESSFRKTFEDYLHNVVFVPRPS
Chain of A isoform of the insulin receptor (P06213 763-1382 partner limits assumed): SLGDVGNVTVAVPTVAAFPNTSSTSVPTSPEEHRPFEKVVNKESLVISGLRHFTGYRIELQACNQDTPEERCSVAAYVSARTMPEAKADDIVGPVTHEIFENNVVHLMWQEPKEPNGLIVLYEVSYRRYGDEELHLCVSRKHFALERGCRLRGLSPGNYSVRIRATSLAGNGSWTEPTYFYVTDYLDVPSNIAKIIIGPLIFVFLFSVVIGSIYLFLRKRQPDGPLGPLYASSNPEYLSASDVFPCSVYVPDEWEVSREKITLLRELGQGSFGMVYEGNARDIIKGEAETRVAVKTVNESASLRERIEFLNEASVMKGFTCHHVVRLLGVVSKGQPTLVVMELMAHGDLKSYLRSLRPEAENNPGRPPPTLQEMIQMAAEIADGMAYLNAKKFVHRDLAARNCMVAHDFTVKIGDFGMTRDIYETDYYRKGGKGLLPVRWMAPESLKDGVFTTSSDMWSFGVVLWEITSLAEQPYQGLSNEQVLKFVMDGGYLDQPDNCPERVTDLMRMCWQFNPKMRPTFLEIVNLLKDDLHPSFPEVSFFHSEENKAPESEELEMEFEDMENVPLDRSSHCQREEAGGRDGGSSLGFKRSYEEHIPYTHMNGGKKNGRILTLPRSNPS
Description: The receptor binding affinity of analogue 81-04 and analogue 4SS 81-04 was also determined. The affinity of 4SS 81-04 for the A isoform of the insulin receptor was determined to be 120±20 percent relative to human insulin (and may in fact be the same as wild type human insulin given the error present; data not shown). […] Such impaired binding to IGF-1R is desirable from the perspective of potential carcinogenesis on long-term use.

FVNCHLCGSHLVEALYLVCGERGFFYTPRTEEGSRRSRGIVEQCCRSCCSLYQLENYCN (disulfide 4-48, 7-45, 19-58, 44-49) [SCI-1]
PK on conventional SQ injection [1]: prolonged PK

SCI-1 without 4SS: Preliminary version of SCI-1 lacking the 4th disulfide bridge, with Gln at position B4 and Ile at position A10 (FVNQHLCGSHLVEALYLVCGERGFFYTDPTEEGPRRGIVEQCCHSICSLEQLENYCN; disulfide (positions not given here); ends not checked)
decrement in activity of heated versus fresh sample at 240 min ([2]; 95° C. for 30 min, time point 240 min): ca. 25%
decrement in activity of heated versus fresh sample at 300 min ([2]; 95° C. for 30 min, time point 300 min): ~40%
activity after 30 min at 95° C. versus fresh sample ([2]; heat-stressed with gentle agitation at 95° C. for 30 min, nominally 1 IU/rat, N=4): largely (but incompletely) maintained

FVNCHLCGSHLVEALYLVCGERGFFYTDPTEEGPRRGIVEQCCHSCCSLEQLENYCN (disulfide 4-46, 7-43, 19-56, 42-47) [SCI-2]
affinity for the A isoform of the insulin receptor relative to human insulin [3]: 120±20%
